Entries after “also recorded” stand apart in the source; their conditions may differ. Non-standard residues stand in square brackets, D forms with d. Residues, ends and D or L forms follow the SMILES beside them.
What was measured:
[1] = Stability in simulated gastric fluid (SGF), RP-HPLC; assay type: in vitro ADME; conditions: 37 °C, read-out: unmetabolized peptide remaining (remained stable)
Experimental: The preparation of the media was performed as described before in Elfgen et al.[24]. Preparation of simulated gastric and intestinal fluid (SGF & SIF) was done according to the European Pharmacopoeia 7.0. Plasma samples were obtained from human blood of a volunteer donor. Pooled human liver microsomes were purchased from Sekisui XenoTech (Kansas City, USA; H1000, Lot: 0710494 and 1210270; H1500, Lot: 1210079), from Sigma-Aldrich (St. Louis, USA; M0692, Lot: SLBL1433V; M0567, Lot: SLBR2706V and SLBN7300V) and from Gibco, Thermo Fisher Scientific (Waltham, USA; HMMCPL, Lot: PL050; HMMCPM, Lot: PL039). Pooled Sprague Dawley rat liver microsomes were purchased from Sigma-Aldrich (St. Louis, USA; M9066, Lot: SLBN0707V) and from Gibco, Thermo Fisher Scientific (Waltham, USA; RTMCPL, Lot: RT053). Pooled cynomolgus monkey liver microsomes were purchased from Gibco, Thermo Fisher Scientific (Waltham, USA; MKMCPL, Lot: MK062) and from Sekisui XenoTech (Kansas City, USA; P2000, Lot: 1210334). […]
(§1) For sample analysis from stability tests (see 2.3), mobile phases were acetonitrile (A) and water (B) each supplemented with 0.15% trifluoroacetic acid (TFA) (v/v). The samples were measured isocratically at 10% solvent A for 30 min. […] A chromatographic metabolite profile of L-RD2 in SIF was recorded with the same mobile phases but using a gradient from 0 to 30% solvent A in 30 min.

CYP1A = target: T1, CYP1A (Homo sapiens, UniProt P05177); experiment: CYP isoform inhibition in human liver microsomes (Cyprotex)
T1 sequence (P05177 2-516): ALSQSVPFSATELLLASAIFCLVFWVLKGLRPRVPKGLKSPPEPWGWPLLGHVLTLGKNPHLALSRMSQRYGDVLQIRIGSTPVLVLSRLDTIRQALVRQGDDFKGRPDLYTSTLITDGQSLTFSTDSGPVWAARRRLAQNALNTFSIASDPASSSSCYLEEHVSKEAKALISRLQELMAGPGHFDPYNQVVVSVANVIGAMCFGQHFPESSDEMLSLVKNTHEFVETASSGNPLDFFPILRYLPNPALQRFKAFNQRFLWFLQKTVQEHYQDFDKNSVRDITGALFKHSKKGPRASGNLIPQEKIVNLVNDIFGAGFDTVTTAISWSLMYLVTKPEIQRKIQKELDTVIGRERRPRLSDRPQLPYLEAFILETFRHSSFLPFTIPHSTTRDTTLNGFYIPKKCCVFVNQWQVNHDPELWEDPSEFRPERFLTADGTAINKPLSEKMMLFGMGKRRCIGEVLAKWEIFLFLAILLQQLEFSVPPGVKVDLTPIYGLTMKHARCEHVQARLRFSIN
Experimental: The experiments were performed by Cyprotex. […] The reactions were terminated by methanol and the generated metabolites were monitored by LC-MS/MS or fluorescence. […] All assays were performed sevenfold. […] For all other substrates, the termination plates were centrifuged at 2,500 rpm and 4 °C for 30 min and aliquots of the supernatants were combined and transferred to fresh 96-well plates. Formic acid in deionized water (final concentration 0.1%) containing internal standard was added to the supernatants prior to cassette analysis by LC-MS/MS. A decrease in the formation of the metabolite compared to the vehicle control was used to calculate the IC50 values.

[2] = Stability in simulated intestinal fluid (SIF), RP-HPLC; assay type: in vitro ADME; conditions: simulated intestinal fluid (SIF), 150 µM, 37 °C, 24 h, read-out: unmetabolized peptide remaining (remained stable)
Experimental: (§2) The preparation of the media was performed as described before in Elfgen et al.[24]. Preparation of simulated gastric and intestinal fluid (SGF & SIF) was done according to the European Pharmacopoeia 7.0. Plasma samples were obtained from human blood of a volunteer donor. Pooled human liver microsomes were purchased from Sekisui XenoTech (Kansas City, USA; H1000, Lot: 0710494 and 1210270; H1500, Lot: 1210079), from Sigma-Aldrich (St. Louis, USA; M0692, Lot: SLBL1433V; M0567, Lot: SLBR2706V and SLBN7300V) and from Gibco, Thermo Fisher Scientific (Waltham, USA; HMMCPL, Lot: PL050; HMMCPM, Lot: PL039). Pooled Sprague Dawley rat liver microsomes were purchased from Sigma-Aldrich (St. Louis, USA; M9066, Lot: SLBN0707V) and from Gibco, Thermo Fisher Scientific (Waltham, USA; RTMCPL, Lot: RT053). Pooled cynomolgus monkey liver microsomes were purchased from Gibco, Thermo Fisher Scientific (Waltham, USA; MKMCPL, Lot: MK062) and from Sekisui XenoTech (Kansas City, USA; P2000, Lot: 1210334). The liver microsomes were diluted in an NADPH regenerating system (NRS).
(§3) For the stability tests, 150 µM RD2 or L-RD2 was incubated in SGF, SIF, human plasma and human liver microsomes in triplicate at 37 °C with slight shaking for different time periods. To prevent microbial contaminations in long-term plasma incubations, 0.1% sodium azide was added to the solutions. Microsomal long-term activity was examined by incubating microsomes without peptide for up to 24 h and adding L-RD2 after 8 and 24 h. The ability to degrade L-RD2 served as indicator for their activity. For the comparison of RD2 metabolite profiles across species, 150 µM RD2 was incubated in human, rat and cynomolgus liver microsomes at 37 °C for 2 and 24 h. […]
as §1

[3] = Inhibition assay: degradation of L-peptide […] with and without RD2; assay type: in vitro ADME; conditions: 150 µM RD2 + 150 µM L-peptide; SGF, SIF 5 min; plasma, liver microsomes 30 min
Experimental: To investigate whether RD2 acts as potential inhibitor for the enzymes contained in SGF, SIF, human blood plasma and human liver microsomes, an exemplary L-peptide, […], was incubated in these media with and without RD2 and the potential inhibition of the L-peptide’s degradation was monitored. This control was intended to reveal a potential resistance of RD2 to degradation due to enzyme inhibition instead of pure degradation resistance. […] For this purpose, 150 µM of the L-peptide with or without 150 µM RD2 was incubated in SGF, SIF, human plasma and liver microsomes and both peptides were extracted from the media immediately or after 5 min (SGF, SIF) or 30 min (plasma, liver microsomes) with the method mentioned under point 2.3. Time dependent compound degradation or modification was followed by RP-HPLC (see 2.8).
For analysis of the inhibition assay with enzymes contained in SGF, SIF, plasma and liver microsomes (see 2.4), RD2, […] and remaining media components were separated using the mobile phases acetonitrile (A) and water (B) each supplemented with 0.15% TFA and a gradient from 0 to 50% solvent A in 15 min.

[4] = Comparison of RD2 metabolite profiles across species: cynomolgus liver microsomes; assay type: in vitro ADME, cynomolgus monkey
Experimental: as §2, §3
For the comparison of RD2 metabolite profiles across species (see 2.3), mobile phases were acetonitrile (A) and water (B) each supplemented with 0.1% TFA. […] The amount of the purified HSM-3 was calculated based on a calibration curve of 10 to 100 µM RD2 extracted from human liver microsomes.

[5] = Comparison of RD2 metabolite profiles across species: human liver microsomes; assay type: in vitro ADME
Experimental: as §2
For the stability tests, 150 µM RD2 or L-RD2 was incubated in SGF, SIF, human plasma and human liver microsomes in triplicate at 37 °C with slight shaking for different time periods. To prevent microbial contaminations in long-term plasma incubations, 0.1% sodium azide was added to the solutions. Microsomal long-term activity was examined by incubating microsomes without peptide for up to 24 h and adding L-RD2 after 8 and 24 h. The ability to degrade L-RD2 served as indicator for their activity. For the comparison of RD2 metabolite profiles across species, 150 µM RD2 was incubated in human, rat and cynomolgus liver microsomes at 37 °C for 2 and 24 h. The peptides were extracted by precipitating the proteins with trichloroacetic acid (TCA) and subsequent centrifugation, as described previously in Elfgen et al.[24]. Peptides immediately extracted from the media and precipitated media without peptides served as controls.
For the comparison of RD2 metabolite profiles across species (see 2.3), mobile phases were acetonitrile (A) and water (B) each supplemented with 0.1% TFA. The gradient ran from 0 to 100% solvent A and is described in detail in Table S1. The chromatographic RD2 metabolite profiles were screened for potential human-specific metabolites. RD2 and the major RD2 metabolite present after 24 h of incubation in human liver microsome batches 7 and 8, HSM-3, were purified by RP-HPLC. Mobile phases were acetonitrile (A) and water (B) each supplemented with 0.15% TFA. The samples were separated isocratically at 10% solvent A for 30 min. RD2 as well as HSM-3 were collected and the samples were freeze-dried subsequently. The amount of the purified HSM-3 was calculated based on a calibration curve of 10 to 100 µM RD2 extracted from human liver microsomes.

CC(C)C[C@@H](NC(=O)[C@H](NC(=O)[C@H]1CCCN1)[C@H](C)O)C(=O)N[C@H](Cc1c[nH]cn1)C(=O)N[C@@H](C(=O)N[C@H](Cc1c[nH]cn1)C(=O)N[C@H](CC(N)=O)C(=O)N[C@H](CCCNC(=N)N)C(=O)N[C@H](CCCNC(=N)N)C(=O)N[C@H](CCCNC(=N)N)C(=O)N[C@H](CCCNC(=N)N)C(=O)N[C@H](CCCNC(=N)N)C(N)=O)[C@H](C)O [RD2, ptlhthnrrrrr] (H-[dP][dT][dL][dH][dT][dH][dN][dR][dR][dR][dR][dR]-NH2)
remaining at 24 h, 150 µM [1]: ≥ 97%
inhibition of CYP1A (CYP1A; concentration range 0 to 25 µM): did not inhibit
inhibition at 0.25 µM (CYP1A; human, human liver microsomes): 6.18%
inhibition at 1 µM (CYP1A; human, human liver microsomes): 9.42%
inhibition at 2.5 µM (CYP1A; human, human liver microsomes): 1.34%
inhibition at 10 µM (CYP1A; human, human liver microsomes): -0.842%
inhibition at 25 µM (CYP1A; human, human liver microsomes): -0.198%
remaining at 24 h, 150 µM [2]: ≥ 97%
influence of RD2 on degradation of the L-peptide KLVFFRRRRRR [3]: not influenced; also recorded: did not influence the degradation of the L-peptide in any of the media
metabolization of RD2 after 2 h ([4]; cynomolgus liver microsomes, 150 µM, 2 h): unmetabolized
metabolised at 24 h, 150 µM ([4]; monkey, pooled cynomolgus monkey liver microsomes, cynomolgus samples, 24 h, read-out: decrease of the intensity of the RD2 peak): 9 ± 2%
metabolization of RD2 after 2 h ([5]; human samples 1–6, 150 µM, 2 h): unmetabolized
decrease of the intensity of the RD2 peak ([5]; human samples 1–6, 24 h): 21 ± 7%

From paper PMC6450887, “Metabolic resistance of the D-peptide RD2 developed for direct elimination of amyloid-β oligomers” (Scientific Reports, 2019)
